Assay results published in BigSolDB 2.1.

Cc1cccc2sc(NN)nc12
solubility (mole fraction)
Conditions | 273.15 K | 278.15 K | 283.15 K | 288.15 K | 293.15 K | 298.15 K | 303.15 K | 308.15 K | 313.15 K | 318.15 K
in acetone | 0.00958 | 0.0118 | 0.0142 | 0.0172 | 0.0203 | 0.024 | 0.0285 | 0.0335 | 0.0391 | 0.0456
in ethanol | 0.000807 | 0.00103 | 0.00131 | 0.00165 | 0.00203 | 0.00252 | 0.00313 | 0.00377 | 0.0046 | 0.00555
in ethyl acetate | 0.00359 | 0.00453 | 0.00569 | 0.00696 | 0.00848 | 0.0101 | 0.0124 | 0.0147 | 0.0176 | 0.0209
in isopropanol | 0.000928 | 0.00123 | 0.00153 | 0.00191 | 0.00235 | 0.00288 | 0.00353 | 0.00429 | 0.00519 | 0.0062
in methanol | 0.000589 | 0.000758 | 0.00095 | 0.00119 | 0.00151 | 0.00185 | 0.00232 | 0.00284 | 0.00348 | 0.00422
in n-butanol | 0.00137 | 0.00168 | 0.00216 | 0.00263 | 0.00329 | 0.00403 | 0.00505 | 0.00616 | 0.00755 | 0.00904
in n-propanol | 0.00115 | 0.00143 | 0.00178 | 0.00218 | 0.00272 | 0.0033 | 0.00395 | 0.00481 | 0.00573 | 0.00696
in toluene | 0.00227 | 0.00276 | 0.00366 | 0.00473 | 0.00583 | 0.00736 | 0.00925 | 0.0116 | 0.0145 | 0.0178
in water | 7.03e-06 | 9.04e-06 | 1.18e-05 | 1.51e-05 | 1.96e-05 | 2.56e-05 | 3.21e-05 | 4.05e-05 | 5.05e-05 | 6.25e-05
